{
  "source": "patent US4879421A",
  "about": "“Method for preparing optically active binaphthol and spiroibiindanol” (General Electric Company, priority 1988, dated 1989)",
  "data": [
    {"biological_target": "T1, cholesterol esterase (Bos taurus, UniProt P30122)", "T1 construct": "assayed with taurocholate in ether/phosphate emulsion", "T1 sequence (P30122 19-597)": "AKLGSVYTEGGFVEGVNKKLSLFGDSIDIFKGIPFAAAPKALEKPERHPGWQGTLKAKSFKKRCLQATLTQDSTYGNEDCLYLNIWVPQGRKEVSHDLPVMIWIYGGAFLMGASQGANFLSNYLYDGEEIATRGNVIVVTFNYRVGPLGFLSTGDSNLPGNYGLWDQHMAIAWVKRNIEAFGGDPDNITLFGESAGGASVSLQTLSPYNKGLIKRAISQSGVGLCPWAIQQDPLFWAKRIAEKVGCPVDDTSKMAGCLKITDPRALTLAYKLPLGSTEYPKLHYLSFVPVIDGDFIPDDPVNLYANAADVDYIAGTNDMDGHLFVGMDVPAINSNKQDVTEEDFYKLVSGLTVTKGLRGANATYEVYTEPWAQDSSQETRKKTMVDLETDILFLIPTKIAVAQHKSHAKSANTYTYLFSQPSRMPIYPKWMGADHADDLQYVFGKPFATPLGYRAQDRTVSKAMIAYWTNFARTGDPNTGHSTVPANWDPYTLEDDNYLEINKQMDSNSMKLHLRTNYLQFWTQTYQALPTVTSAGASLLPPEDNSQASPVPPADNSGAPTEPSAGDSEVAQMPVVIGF", "assay": "Cholesterol esterase catalyzed hydrolysis of esters, relative rate by pH stat", "format": "biochemical", "settings": "commercial cholesterol esterase, 0.1 N NaOH to hold pH 7.0, emulsion of ester (1.0 mmol) in ethyl ether (10 mL) and 10 mM phosphate buffer pH 7.0 with 30 mg sodium taurocholate", "method": "In similar manner as Example 2 commercial samples of cholesterol esterase are shown to catalyze the enantiospecific hydrolysis of diesters of 1,1'-bi-2-naphthol listed in the following Table.\n^(a) The relative rate of hydrolysis is measured using a pH stat whic\nmeasures the amount of base (0.1 N NaOH) required to maintain the pH at\n7.0 for an emulsion of ester (1.0 mmol) dissolved in ethyl ether (10\nmilliliter) and aqueous buffer (10 milliliters of 10 mM phosphate, pH 7.0\ncontaining 30 milligrams sodium taurocholate).", "values": [
      {"smiles": "CCC(=O)Oc1ccc2ccccc2c1-c1c(OC(=O)CC)ccc2ccccc12", "Relative Rate (relative rate of hydrolysis)": 1.1},
      {"smiles": "CCCC(=O)Oc1ccc2ccccc2c1-c1c(OC(=O)CCC)ccc2ccccc12", "note": "[Butyrate]", "Relative Rate (relative rate of hydrolysis)": 0.5},
      {"smiles": "CC(=O)Oc1ccc2ccccc2c1-c1c(OC(C)=O)ccc2ccccc12", "note": "[acetate]", "Relative Rate (relative rate of hydrolysis)": 1.1},
      {"smiles": "CCCCCC(=O)Oc1ccc2ccccc2c1-c1c(OC(=O)CCCCC)ccc2ccccc12", "note": "[hexanoate]", "Relative Rate (relative rate of hydrolysis)": 0.5},
      {"smiles": "CCCCCCCC(=O)Oc1ccc2ccccc2c1-c1c(OC(=O)CCCCCCC)ccc2ccccc12", "note": "[octanoate]", "Relative Rate (relative rate of hydrolysis)": 0.4},
      {"smiles": "CC(=O)O[C@H]1CC[C@@]2(C)C(=CC[C@H]3[C@@H]4CC[C@H]([C@H](C)CCCC(C)C)[C@@]4(C)CC[C@@H]32)C1", "note": "[reference compound]", "Relative Rate (relative rate of hydrolysis)": 1.0}
    ]}
  ]
}
